As usually defined, the IC50 is the concentration at which inhibition is half-maximal. Lower therefore signals higher potency.

This passage reports IC50 results from patent US9187472B2 (AbbVie Inc., priority 2012, dated 2015).

Each structure is given as a SMILES string.

The test system of the test is PC3 cells. As to the kind of experiment: NAMPT Cell Proliferation Assay. Type of test: cell-based. The note with it: Homo sapiens, PC-3, 120 h, 5 days incubation, cell viability by Cell Titer Glo. In outline:
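Seed PC3 at 500 cells/well (RPMI, 10% HI-FBS), attach overnight; add compound, 10-fold series 10 μM → 1×10^−5 μM; incubate 5 d, 37° C/5% CO2; luminescent viability readout; fit % inhibition sigmoidally for IC50.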
In general terms: In ATP-based viability assays light output follows the ATP content of the culture.
In turn, `CCN(CC)CCC(=O)N1CCC(c2ccc(NC(=O)NCc3ccn4ccnc4c3)cc2)CC1` [Example 950, 1-{4-[1-(N,N-diethyl-beta-alanyl)piperidin-4-yl]phenyl}-3-(imidazo[1,2-a]pyridin-7-ylmethyl)urea] came in with an IC50 of 634 nM.

With `COc1ccc(C(=O)N2CCC(c3ccc(NC(=O)NCc4ccn5ccnc5c4)cc3)CC2)nc1OC` [Example 1148, 1-(4-{1-[(5,6-dimethoxypyridin-2-yl)carbonyl]piperidin-4-yl}phenyl)-3-(imidazo[1,2-a]pyridin-7-ylmethyl)urea], half-maximal inhibition (IC50) was put at 2.72 nM. As for `O=C(NCc1ccn2ccnc2c1)Nc1ccc(C2CCN(C(=O)c3cnc4c(c3)CCCO4)CC2)cc1` [Example 1036, 1-{4-[1-(3,4-dihydro-2H-pyrano[2,3-b]pyridin-6-ylcarbonyl)piperidin-4-yl]phenyl}-3-(imidazo[1,2-a]pyridin-7-ylmethyl)urea], the figure is 16 nM; as for `CC1Cc2cc(C(=O)N3CCC(c4ccc(NC(=O)NCc5ccn6ccnc6c5)cc4)CC3)ccc2O1` (stereo not drawn) [Example 1046, 1-(imidazo[1,2-a]pyridin-7-ylmethyl)-3-(4-{1-[(2-methyl-2,3-dihydro-1-benzofuran-5-yl)carbonyl]piperidin-4-yl}phenyl)urea], 4.61 nM; as for `CC1=C(C(=O)N2CCC(c3ccc(NC(=O)NCc4ccn5ccnc5c4)cc3)CC2)CCC1` [Example 941, 1-(imidazo[1,2-a]pyridin-7-ylmethyl)-3-(4-{1-[(2-methylcyclopent-1-en-1-yl)carbonyl]piperidin-4-yl}phenyl)urea], 0.519 nM. `Cn1cc2ccc(C(=O)N3CCC(c4ccc(C(=O)NCc5ccn6ccnc6c5)cc4)CC3)cc2n1` [Example 1118, N-(imidazo[1,2-a]pyridin-7-ylmethyl)-4-{1-[(2-methyl-2H-indazol-6-yl)carbonyl]piperidin-4-yl}benzamide] gave an IC50 of 4.18 nM. As to `CC(C)(C)Cn1cc(-c2ccc(C(=O)NCc3cn4ccnc4cn3)s2)cn1` [Example 858, 5-[1-(2,2-dimethylpropyl)-1H-pyrazol-4-yl]-N-(imidazo[1,2-a]pyrazin-6-ylmethyl)thiophene-2-carboxamide], the IC50 worked out at 0.59 nM. Compound `O=C(Cc1ccc2nccn2c1)Nc1ccc(C2CCN(C(=O)c3ccccc3F)CC2)cc1` [Example 863, N-{4-[1-(2-fluorobenzoyl)piperidin-4-yl]phenyl}-2-(imidazo[1,2-a]pyridin-6-yl)acetamide] displayed an IC50 of 0.642 nM. As for `O=C(NCc1ccn2ccnc2c1)Nc1ccc(C2CCN(C(=O)c3ccnn3C(F)F)CC2)cc1` [Example 1022, 1-[4-(1-{[1-(difluoromethyl)-1H-pyrazol-5-yl]carbonyl}piperidin-4-yl)phenyl]-3-(imidazo[1,2-a]pyridin-7-ylmethyl)urea], the figure is 2.93 nM; as for `CC1=C(C(=O)N2CCC(c3ccc(C(=O)NCc4ccn5ccnc5c4)cc3)CC2)CCC1` [Example 916, N-(imidazo[1,2-a]pyridin-7-ylmethyl)-4-{1-[(2-methylcyclopent-1-en-1-yl)carbonyl]piperidin-4-yl}benzamide], 6.73 nM; as for `N#Cc1ccccc1C(=O)N1CCC(c2ccc(NC(=O)NCc3ccn4ccnc4c3)c(F)c2)CC1` [Example 1076, 1-{4-[1-(2-cyanobenzoyl)piperidin-4-yl]-2-fluorophenyl}-3-(imidazo[1,2-a]pyridin-7-ylmethyl)urea], 5.7 nM.

On to `O=C(Cc1ccccc1)Nc1ccc(C(=O)NCc2ccn3ccnc3c2)cc1` [Example 868, N-(imidazo[1,2-a]pyridin-7-ylmethyl)-4-[(phenylacetyl)amino]benzamide], for which the IC50 came to 86.9 nM.

`N#Cc1cc(F)c(C(=O)N2CCC(c3ccc(NC(=O)NCc4ccn5ccnc5c4)cc3)CC2)c(F)c1` [Example 1133, 1-{4-[1-(4-cyano-2,6-difluorobenzoyl)piperidin-4-yl]phenyl}-3-(imidazo[1,2-a]pyridin-7-ylmethyl)urea]: 1 nM corresponded to half-maximal inhibition (IC50).

`Cn1c(C(=O)N2CCC(c3ccc(NC(=O)NCc4ccn5ccnc5c4)cc3)CC2)cc2occc21` [Example 1045, 1-(imidazo[1,2-a]pyridin-7-ylmethyl)-3-(4-{1-[(4-methyl-4H-furo[3,2-b]pyrrol-5-yl)carbonyl]piperidin-4-yl}phenyl)urea] gave an IC50 of 6.69 nM. The compound `O=C(NCc1ccn2ccnc2c1)c1ccc(C2CCN(C(=O)c3ccoc3C(F)(F)F)CC2)cc1` [Example 1120, N-(imidazo[1,2-a]pyridin-7-ylmethyl)-4-(1-{[2-(trifluoromethyl)furan-3-yl]carbonyl}piperidin-4-yl)benzamide] registered an IC50 of 2.37 nM. As to `O=C(NCc1ccn2ccnc2c1)Nc1ccc(C2CCN(C(=O)COc3ccc(F)cc3)CC2)cc1` [Example 943, 1-(4-{1-[(4-fluorophenoxy)acetyl]piperidin-4-yl}phenyl)-3-(imidazo[1,2-a]pyridin-7-ylmethyl)urea], the IC50 came out at 24.4 nM. `O=C(NCc1ccn2ccnc2c1)Nc1ccc(C2CCN(C(=O)c3cccnc3Cl)CC2)cc1` [Example 938, 1-(4-{1-[(2-chloropyridin-3-yl)carbonyl]piperidin-4-yl}phenyl)-3-(imidazo[1,2-a]pyridin-7-ylmethyl)urea] had an IC50 of 6.27 nM. The figure for `N#CC1(C(=O)N2CCC(c3ccc(NC(=O)NCc4ccn5ccnc5c4)cc3)CC2)CCCC1` [Example 1030, 1-(4-{1-[(1-cyanocyclopentyl)carbonyl]piperidin-4-yl}phenyl)-3-(imidazo[1,2-a]pyridin-7-ylmethyl)urea] is 2.04 nM; for `CC(C(=O)N1CCC(c2ccc(NC(=O)NCc3ccn4ccnc4c3)cc2)CC1)n1ccc(C2CC2)n1` (stereo not drawn) [Example 1142, 1-(4-{1-[2-(3-cyclopropyl-1H-pyrazol-1-yl)propanoyl]piperidin-4-yl}phenyl)-3-(imidazo[1,2-a]pyridin-7-ylmethyl)urea] it is 2.9 nM; for `COc1csc(C(=O)N2CCC(c3ccc(NC(=O)NCc4ccn5ccnc5c4)cc3)CC2)c1` [Example 1130, 1-(imidazo[1,2-a]pyridin-7-ylmethyl)-3-(4-{1-[(4-methoxythiophen-2-yl)carbonyl]piperidin-4-yl}phenyl)urea] it is 2.96 nM. The figure for `CCOc1cc(C(=O)N2CCC(c3ccc(C(=O)NCc4ccn5ccnc5c4)cc3)CC2)ccn1` [Example 993, 4-{1-[(2-ethoxypyridin-4-yl)carbonyl]piperidin-4-yl}-N-(imidazo[1,2-a]pyridin-7-ylmethyl)benzamide] is 74 nM. The figure for `CCOc1cc(C(=O)N2CCC(c3ccc(NC(=O)NCc4ccn5ccnc5c4)cc3)CC2)ccn1` [Example 1043, 1-(4-{1-[(2-ethoxypyridin-4-yl)carbonyl]piperidin-4-yl}phenyl)-3-(imidazo[1,2-a]pyridin-7-ylmethyl)urea] is 10.4 nM; for `O=C(NCc1ccn2ccnc2c1)Nc1ccc(C2CCN(C(=O)c3cc4occc4s3)CC2)cc1` [Example 1129, 1-(imidazo[1,2-a]pyridin-7-ylmethyl)-3-{4-[1-(thieno[3,2-b]furan-5-ylcarbonyl)piperidin-4-yl]phenyl}urea] it is 8.05 nM.

Take `COc1cccc(CC(=O)N2CCC(c3ccc(C(=O)NCc4ccn5ccnc5c4)cc3)CC2)c1` [Example 933, N-(imidazo[1,2-a]pyridin-7-ylmethyl)-4-{1-[(3-methoxyphenyl)acetyl]piperidin-4-yl}benzamide]: the IC50 is 71.7 nM.

As to `O=C(NCc1cn2ccnc2cn1)c1ccc(S(=O)(=O)c2ccccc2)cc1` [Example 897, N-(imidazo[1,2-a]pyrazin-6-ylmethyl)-4-(phenylsulfonyl)benzamide], the IC50 came to 716 nM.

For the compound `Cn1ncc2ccc(C(=O)N3CCC(c4ccc(C(=O)NCc5ccn6ccnc6c5)cc4)CC3)cc21` [Example 1086, N-(imidazo[1,2-a]pyridin-7-ylmethyl)-4-{1-[(1-methyl-1H-indazol-6-yl)carbonyl]piperidin-4-yl}benzamide], the IC50 came out at 9.93 nM. `COc1cccc(OC)c1C(=O)N1CCC(c2ccc(C(=O)NCc3ccn4ccnc4c3)cc2)CC1` [Example 927, 4-[1-(2,6-dimethoxybenzoyl)piperidin-4-yl]-N-(imidazo[1,2-a]pyridin-7-ylmethyl)benzamide] yielded an IC50 of 7.13 nM. In the case of `O=C(NCc1cn2ccnc2cn1)c1ccc(C2CCN(C(=O)c3ccc(F)cc3F)CC2)s1` [Example 829, 5-[1-(2,4-difluorobenzoyl)piperidin-4-yl]-N-(imidazo[1,2-a]pyrazin-6-ylmethyl)thiophene-2-carboxamide], the IC50 was determined as 1.77 nM. As for `O=C(NCc1ccn2ccnc2c1)c1ccc(C2CCN(C(=O)c3cncc4ccccc34)CC2)cc1` [Example 979, N-(imidazo[1,2-a]pyridin-7-ylmethyl)-4-[1-(isoquinolin-4-ylcarbonyl)piperidin-4-yl]benzamide], the figure is 75.7 nM; as for `O=C(NCc1ccn2ccnc2c1)Nc1ccc(C2CCN(C(=O)c3ccc(C4CC4)cn3)CC2)cc1` [Example 1132, 1-(4-{1-[(5-cyclopropylpyridin-2-yl)carbonyl]piperidin-4-yl}phenyl)-3-(imidazo[1,2-a]pyridin-7-ylmethyl)urea], 8.96 nM. Compound `O=C(NCc1ccn2ccnc2c1)c1ccc(NC(=O)c2cc(F)ccc2F)cc1` [Example 870, 2,5-difluoro-N-{4-[(imidazo[1,2-a]pyridin-7-ylmethyl)carbamoyl]phenyl}benzamide] gave an IC50 of 994 nM. As for `O=C(Cc1ccccc1F)Nc1ccc(C(=O)NCc2ccn3ccnc3c2)cc1` [Example 876, 4-{[(2-fluorophenyl)acetyl]amino}-N-(imidazo[1,2-a]pyridin-7-ylmethyl)benzamide], the figure is 47.7 nM. As for `O=C(NCc1ccc2ncnn2c1)c1ccc(S(=O)(=O)c2ccccc2)cc1` [Example 882, 4-(phenylsulfonyl)-N-([1,2,4]triazolo[1,5-a]pyridin-6-ylmethyl)benzamide], the figure is over 10000 nM.
